From patent publication US9802899B2, “Heterocyclic compounds as pesticides” (BAYER CROPSCIENCE AG, priority 2012, dated 2017)

Assay: Determination of the log P values by HPLC (formic acid method)
Type: physicochemical
Conditions: reversed-phase HPLC column (C 18), reversed-phase column (C 18), acidic range (pH 3.4), 55° C.
Procedure: 1) Description of Method for Determination of the Log P Values (Formic Acid Method)
Eluents for determination in the acidic range (pH 3.4):
Eluent A: acetonitrile+1 ml of formic acid/liter. Eluent B: water+0.9 ml of formic acid/liter.
The lambda max values were determined in the maxima of the chromatographic signals using the UV spectra from 200 nm to 400 nm.

`O=C(Nc1ccn(-c2c(F)cc(C(F)(F)F)cc2F)n1)c1ccccc1C(F)(F)F` [Compound I-1-230, N-{1-[2,6-Difluoro-4-(trifluoromethyl)phenyl]-1H-pyrazol-3-yl}-2-(trifluoromethyl)benzamide] and `O=C(Nc1ccn(-c2nccc(-c3ccc(F)cc3)c2F)n1)c1ccccc1C(F)(F)F` [Compound I-1-640, N-{1-[3-Fluoro-4-(4-fluorophenyl)pyridin-2-yl]-1H-pyrazol-3-yl}-2-(trifluoromethyl)benzamide] are within 0.2 log units of each other in chromatographic logP: 3.39 for the first, 3.4 for the second.

Compared with `CCCc1ccc(C#N)c(-n2ccc(NC(=O)c3ccccc3C(F)(F)F)n2)n1` [Compound I-1-573, N-[1-(3-Cyano-6-propylpyridin-2-yl)-1H-pyrazol-3-yl]-2-(trifluoromethyl)benzamide], `Nc1ccn(-c2nccnc2F)n1` [1-(3-Fluoropyrazin-2-yl)-1H-pyrazole-3-amine] is lower in chromatographic logP: 3.8 for the first, 0.49 for the second.

Same assay, conditions: reversed-phase column (C 18), acidic range (pH 3.4), 55° C.

`COc1ccccc1-n1ccc(NC(=O)c2ccccc2Cl)n1` [Compound I-1-410] and `COc1ccccc1-n1ccc(NC(=O)c2ccccc2Br)n1` [Compound I-1-2] are within 0.2 log units of each other in “log P” value: 2.70 for the first, 2.69 for the second.

Going from `O=C(Nc1ccn(-c2cccnc2Cl)n1)c1ccccc1C(F)(F)F` [Compound I-1-391] to `O=C(Nc1ccn(-c2ncccc2C(F)(F)F)n1)c1ccccc1Br` [Compound I-1-424], the “log P” value rises from 2.31 to 2.61.

First: O=C(Nc1ccn(-c2ccccc2Cl)n1)c1occc1I [Compound I-1-378]
Second: O=C(Nc1ccn(-c2ccccc2Cl)n1)c1sccc1I [Compound I-1-379]
The “log P” value of the first is lower: 2.96 for the first, 3.34 for the second.

Going from `Cc1cc(NC(=O)c2ccccc2Br)nn1-c1ccc(F)cc1F` [Compound I-1-208] to `O=C(Nc1ccn(-c2ccc(F)cc2F)n1)c1ccccc1Br` [Compound I-1-209], the “log P” value falls from 3.63 to 2.95.

First: CCc1ccccc1C(=O)Nc1ccn(-c2ncc(F)cc2F)n1 [Compound I-1-488]
Second: CC(=O)c1ccccc1C(=O)Nc1ccn(-c2ncc(F)cc2F)n1 [Compound I-1-481]
The “log P” value of the first is higher: 2.69 for the first, 2.22 for the second.

Compared with `O=C(Nc1ccn(-c2cc(F)ccc2F)n1)c1occc1I` [Compound I-1-222], `O=C(Nc1ccn(-c2c(F)cccc2F)n1)c1occc1I` [Compound I-1-288] is lower in “log P” value: 3.14 for the first, 2.64 for the second.

`N#Cc1cc(F)ccc1-n1ccc(NC(=O)c2ccccc2Cl)n1` [Compound I-1-630] and `O=C(Nc1ccn(-c2c(F)cccc2F)n1)c1ccccc1Cl` [Compound I-1-81] are within 0.2 log units of each other in “log P” value: 2.52 for the first, 2.55 for the second.

Going from `Cc1cc(NC(=O)c2cnccc2C(F)(F)F)nn1-c1ccccc1Cl` [Compound I-1-380] to `O=C(Nc1ccn(-c2ncc(C(F)(F)F)cc2Cl)n1)c1ccccc1C(F)(F)F` [Compound I-1-560], the “log P” value rises from 2.09 to 3.41.

Going from `CCC(C)n1ncc(Cl)c1C(=O)Nc1ccn(-c2ncc(F)cc2F)n1` (stereo not shown) [Compound I-1-455] to `Cc1nn(C)c(C(=O)Nc2ccn(-c3ncc(F)cc3F)n2)c1Br` [Compound I-1-517], the “log P” value falls from 3.37 to 2.53.

First: O=C(Nc1ccn(-c2ncc(F)cc2Cl)n1)c1c(F)cccc1F [Compound I-1-286]
Second: O=C(Nc1ccn(-c2ncc(F)cc2F)n1)c1c(F)cccc1I [Compound I-1-492]
The “log P” value of the first is lower: 2.33 for the first, 2.56 for the second.

Compared with `O=C(Nc1ccn(-c2c(F)cccc2F)n1)c1cncnc1C(F)(F)F` [Compound I-1-295], `Cn1nc(C(F)(F)F)c(C(=O)Nc2ccn(-c3c(F)cccc3F)n2)c1F` [Compound I-1-112] is higher in “log P” value: 2.25 for the first, 2.53 for the second.

Compared with `Cn1cncc1C(=O)Nc1ccn(-c2ncc(F)cc2F)n1` [Compound I-1-646], `Cc1nonc1C(=O)Nc1ccn(-c2ncc(F)cc2F)n1` [Compound I-1-542] is higher in “log P” value: 0.70 for the first, 2.22 for the second.

`O=C(Nc1ccn(-c2c(F)cccc2F)n1)c1ccccc1C(F)F` [Compound I-1-74] and `O=C(Nc1ccn(-c2c(F)cccc2F)n1)c1ccccc1OC(F)F` [Compound I-1-247] are within 0.2 log units of each other in “log P” value: 2.73 for the first, 2.74 for the second.

First: O=C(Nc1ccn(-c2cc(F)ccc2F)n1)c1cccnc1Cl [Compound I-1-218]
Second: O=C(Nc1ccn(-c2cc(F)ccc2F)n1)c1ccsc1I [Compound I-1-219]
The “log P” value of the first is lower: 2.28 for the first, 3.25 for the second.

Going from `O=C(Nc1ccn(-c2ncc(F)cc2F)n1)c1ccccc1OC(F)(F)F` [Compound I-1-463] to `O=C(Nc1ccn(-c2ncc(F)cc2F)n1)c1ccncc1C(F)(F)F` [Compound I-1-153], the “log P” value falls from 2.77 to 1.96.

Going from `O=C(Nc1cnn(-c2ncccc2F)n1)c1cccnc1Br` [Compound I-2-47] to `O=C(Nc1cnn(-c2ncccc2Cl)n1)c1ccccc1Br` [Compound I-2-13], the “log P” value rises from 1.49 to 2.26.

Compared with `Cn1nc(C(C)(C)C)c(Cl)c1C(=O)Nc1ccn(-c2ncc(F)cc2F)n1` [Compound I-1-513], `Cn1nc([N+](=O)[O-])c(Cl)c1C(=O)Nc1ccn(-c2ncc(F)cc2F)n1` [Compound I-1-530] is lower in “log P” value: 3.89 for the first, 2.50 for the second.

Compared with `O=C(Nc1ccn(-c2cnc(Cl)cn2)n1)c1ccccc1I` [Compound I-1-390], `O=C(Nc1ccn(-c2ncc(C(F)(F)F)cc2Cl)n1)c1ccccc1I` [Compound I-1-421] is higher in “log P” value: 2.96 for the first, 3.43 for the second.

First: N#CCN(C(=O)c1ccccc1C(F)(F)F)c1ccn(-c2ncc(F)cc2F)n1 [Compound I-1-472]
Second: O=C(Nc1ccn(-c2ncc(F)cc2F)n1)c1nccnc1C(F)(F)F [Compound I-1-501]
The “log P” value of the first is higher: 2.80 for the first, 2.20 for the second.

Compared with `O=C(Nc1cnn(-c2c(F)cccc2F)n1)c1ccccc1Br` [Compound I-2-36], `O=C(Nc1cnn(-c2ccccc2Br)n1)c1cccnc1Cl` [Compound I-2-9] is lower in “log P” value: 2.71 for the first, 2.29 for the second.

Compared with `Cn1nc(C(F)(F)F)c(C(=O)Nc2cnn(-c3ncccc3Cl)n2)c1F` [Compound I-2-16], `O=C(Nc1cnn(-c2ncc(C(F)(F)F)cc2Cl)n1)c1ccccc1I` [Compound I-2-75] is higher in “log P” value: 2.19 for the first, 3.28 for the second.

`N#Cc1c(F)cccc1-n1ccc(NC(=O)c2ccccc2I)n1` [Compound I-1-625] and `N#Cc1c(F)cccc1-n1ccc(NC(=O)c2ccsc2I)n1` [Compound I-1-624] are within 0.2 log units of each other in “log P” value: 2.63 for the first, 2.79 for the second.

First: Cc1cccnc1C(=O)Nc1ccn(-c2ccccc2Br)n1 [Compound I-1-336]
Second: Cc1cccc(C)c1C(=O)Nc1ccn(-c2ccccc2Cl)n1 [Compound I-1-353]
The “log P” value of the first is lower: 1.44 for the first, 2.97 for the second.

Going from `Cn1ncnc1C(=O)Nc1ccn(-c2c(F)cccc2F)n1` [Compound I-1-236] to `Cn1cccc1C(=O)Nc1ccn(-c2c(F)cccc2F)n1` [Compound I-1-645], the “log P” value rises from 1.93 to 2.41.

First: O=C(Nc1ccn(-c2ccccc2Cl)n1)c1c(Cl)cccc1Cl [Compound I-1-351]
Second: CS(=O)(=O)c1ccccc1C(=O)Nc1ccn(-c2ccccc2Cl)n1 [Compound I-1-341]
The “log P” value of the first is higher: 3.00 for the first, 2.17 for the second.

`O=C(Nc1ccn(-c2ccc(F)cn2)n1)c1cccnc1C(F)(F)F` [Compound I-1-597] and `O=C(Nc1ccn(-c2ncc(F)cc2F)n1)c1ncccc1Cl` [Compound I-1-504] are within 0.2 log units of each other in “log P” value: 2.32 for the first, 2.16 for the second.

Going from `O=C(Nc1nn(-c2ncc(C(F)(F)F)cc2Cl)c2ccccc12)c1ccccc1Br` [Compound I-5-5] to `O=C(Nc1ccn(-c2ncc(Cl)cc2Cl)n1)c1ccccc1Br` [Compound I-1-430], the “log P” value falls from 3.98 to 2.95.

First: O=C(Nc1ccn(-c2ncc(Cl)cc2Cl)n1)c1cc(Cl)ccc1C(F)(F)F [Compound I-1-437]
Second: Cn1nc(C(F)(F)C(F)(F)F)c(C#N)c1C(=O)Nc1ccn(-c2ncc(F)cc2F)n1 [Compound I-1-535]
The “log P” value of the first is lower: 2.93 for the first, 3.19 for the second.

Going from `O=C(Nc1ccn(-c2ccccc2[N+](=O)[O-])n1)c1ccccc1Cl` [Compound I-1-125] to `C#CCN(C(=O)c1ccccc1Cl)c1ccn(-c2ccccc2Cl)n1` [Compound I-1-23], the “log P” value rises from 2.46 to 3.25.

Compared with `CC(C)c1nn(C)c(C(=O)Nc2ccn(-c3ncc(F)cc3F)n2)c1[N+](=O)[O-]` [Compound I-1-509], `CC(C)Cc1nn(C)c(C(=O)Nc2ccn(-c3c(F)cccc3F)n2)c1[N+](=O)[O-]` [Compound I-1-289] is higher in “log P” value: 2.72 for the first, 3.19 for the second.

`Cc1cn(-c2ccccc2Cl)nc1NC(=O)c1c(F)cccc1F` [Compound I-1-352] and `Cn1nc([N+](=O)[O-])c(Cl)c1C(=O)Nc1ccn(-c2c(F)cccc2F)n1` [Compound I-1-312] are the same in “log P” value: 2.70 for the first, 2.70 for the second.

Compared with `Cn1nc(C(F)(F)C(F)(F)F)c(C(F)(F)F)c1C(=O)Nc1ccn(-c2ncc(F)cc2F)n1` [Compound I-1-450], `Cn1nc(C(F)(F)F)c(C(=O)Nc2ccn(-c3c(F)cccc3F)n2)c1C(F)(F)F` [Compound I-1-238] is lower in “log P” value: 3.65 for the first, 2.99 for the second.

In the case of `O=C(c1ccccc1Cl)N(C(=O)c1ccccc1Cl)c1nn(-c2ccccc2Br)nc1Cl` [Compound I-2-30], the “log P” value is reported as 4.87.

`Nc1ccn(-c2ncc(F)cc2F)n1` [1-(3,5-Difluoropyridin-2-yl)-1H-pyrazole-3-amine] showed a chromatographic logP of 0.81.
